Measured values as given in patent US10392347B2, “2,4-dihydroxy-nicotinamides as APJ agonists” (BRISTOL-MYERS SQUIBB COMPANY, priority 2015, dated 2019).

These molecules were tested against T1, human APJ receptor (Homo sapiens, UniProt P35414) (assay: Intracellular cAMP accumulation assay (APJ hcAMP, HTRF)). Details: Table 4; HEK293 cells stably expressing human APJ, forskolin-stimulated cAMP; read-out: Human cAMP EC50.
T1 construct: expressed in transfected cells
T1 sequence (P35414 1-380): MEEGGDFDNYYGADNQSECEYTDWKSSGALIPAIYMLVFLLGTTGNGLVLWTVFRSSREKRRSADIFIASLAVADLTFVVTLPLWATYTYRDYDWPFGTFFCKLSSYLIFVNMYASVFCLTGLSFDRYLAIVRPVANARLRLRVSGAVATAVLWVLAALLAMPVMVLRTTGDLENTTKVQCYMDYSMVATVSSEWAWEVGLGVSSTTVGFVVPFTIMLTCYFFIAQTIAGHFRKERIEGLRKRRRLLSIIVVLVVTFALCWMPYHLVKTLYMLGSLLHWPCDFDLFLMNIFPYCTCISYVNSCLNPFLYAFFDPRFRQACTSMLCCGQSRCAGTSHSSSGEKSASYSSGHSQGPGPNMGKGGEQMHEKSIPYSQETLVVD
Format: cell-based
Procedure, shortened: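 Inhibition of forskolin (2 μM)-stimulated cAMP, with […], was measured after 30 min compound exposure at room temperature in stably transfected HEK293 cells. HTRF ratios were converted to cAMP via standard curve, and EC50 values came from variable-slope sigmoidal concentration-response fitting.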

Structure (SMILES)	EC50 [nM]
CCCCc1nc(O)c(C(=O)N(C)CCNC(=O)c2ccccc2)c(O)c1-c1c(OC)cccc1OC [Example 95, N-(2-{1-[6-butyl-5-(2,6-dimethoxyphenyl)-2,4-dihydroxypyridin-3-yl]-N-methylformamido}ethyl)benzamide]	10 to 100
CCCCc1nc(O)c(C(=O)N2CC[C@@H](c3ccccc3)C2)c(O)c1-c1cc(OC)ccc1OC [Example 96, 6-butyl-5-(2,5-dimethoxyphenyl)-3-[(3S)-3-phenylpyrrolidine-1-carbonyl]pyridine-2,4-diol]	0.01 to 10
CCCCc1nc(O)c(C(=O)N2CC[C@H](c3ccccc3)C2)c(O)c1-c1cc(OC)ccc1OC [Example 97, 6-butyl-5-(2,5-dimethoxyphenyl)-3-[(3R)-3-phenylpyrrolidine-1-carbonyl]pyridine-2,4-diol]	0.01 to 10
CCCCc1nc(O)c(C(=O)N2CC(NC(=O)c3ccccc3)C2)c(O)c1-c1c(OC)cccc1OC [Example 98, N-{1-[6-butyl-5-(2,6-dimethoxyphenyl)-2,4-dihydroxypyridine-3-carbonyl]azetidin-3-yl}benzamide]	0.01 to 10
CCCCc1nc(O)c(C(=O)N(C)CCOc2ccccc2)c(O)c1-c1c(OC)cccc1OC [Example 99, 6-butyl-5-(2,6-dimethoxyphenyl)-2,4-dihydroxy-N-methyl-N-(2-phenoxyethyl)pyridine-3-carboxamide]	10 to 100
CCCCc1nc(O)c(C(=O)N2CCC(Oc3ccc(Cl)cn3)CC2)c(O)c1-c1c(OC)cccc1OC [Example 100, 6-butyl-3-{4-[(5-chloropyridin-2-yl)oxy]piperidine-1-carbonyl}-5-(2,6-dimethoxyphenyl)pyridine-2,4-diol]	0.01 to 10
CCCCc1nc(O)c(C(=O)N2CCN(Cc3ccccn3)CC2)c(O)c1-c1c(OC)cccc1OC [Example 101, 6-butyl-5-(2,6-dimethoxyphenyl)-3-[4-(pyridin-2-ylmethyl)piperazine-1-carbonyl]pyridine-2,4-diol]	0.01 to 10
CCCCc1nc(O)c(C(=O)N(C)CCNc2ncc(Cl)cc2F)c(O)c1-c1c(OC)cccc1OC [Example 102, 6-butyl-N-{2-[(5-chloro-3-fluoropyridin-2-yl)amino]ethyl}-5-(2,6-dimethoxyphenyl)-2,4-dihydroxy-N-methylpyridine-3-carboxamide]	10 to 100
CCCCc1nc(O)c(C(=O)N2CCN(Cc3cccc(Cl)c3Cl)CC2)c(O)c1-c1cc(OC)ccc1OC [Example 103, 6-butyl-3-{4-[(2,3-dichlorophenyl)methyl]piperazine-1-carbonyl}-5-(2,5-dimethoxyphenyl)pyridine-2,4-diol]	0.01 to 10
CCOCc1nc(O)c(C(=O)N2CCN(Cc3cccc(Cl)c3Cl)CC2)c(O)c1-c1c(OC)cccc1OC [Example 104, 3-{4-[(2,3-dichlorophenyl)methyl]piperazine-1-carbonyl}-5-(2,6-dimethoxyphenyl)-6-(ethoxymethyl)pyridine-2,4-diol]	0.01 to 10
CCCCc1nc(O)c(C(=O)N2CCN(C(=O)c3ccc(Cl)cn3)CC2)c(O)c1-c1c(OC)cccc1OC [Example 105, 6-butyl-3-[4-(5-chloropyridine-2-carbonyl)piperazine-1-carbonyl]-5-(2,6-dimethoxyphenyl)pyridine-2,4-diol]	0.01 to 10
CCCCc1nc(O)c(C(=O)N2CCC(Cc3ccccc3C)CC2)c(O)c1-c1c(OC)cccc1OC [Example 106, 6-butyl-5-(2,6-dimethoxyphenyl)-3-{4-[(2-methylphenyl)methyl]piperidine-1-carbonyl}pyridine-2,4-diol]	0.01 to 10
CCCCc1nc(O)c(C(=O)N2CCN(Cc3cccc(C(F)(F)F)c3)CC2)c(O)c1-c1c(OC)cccc1OC [Example 107, 6-butyl-5-(2,6-dimethoxyphenyl)-3-(4-{[3-(trifluoromethyl)phenyl]methyl}piperazine-1-carbonyl)pyridine-2,4-diol]	100 to 300
CCCCc1nc(O)c(C(=O)N2CCN(Cc3cccc(F)c3F)CC2)c(O)c1-c1c(OC)cccc1OC [Example 108, 6-butyl-3-{4-[(2,3-difluorophenyl)methyl]piperazine-1-carbonyl}-5-(2,6-dimethoxyphenyl)pyridine-2,4-diol]	0.01 to 10
CCCCc1nc(O)c(C(=O)N2CCN(CC3CCCCC3)CC2)c(O)c1-c1c(OC)cccc1OC [Example 109, 6-butyl-3-[4-(cyclohexylmethyl)piperazine-1-carbonyl]-5-(2,6-dimethoxyphenyl)pyridine-2,4-diol]	10 to 100
CCCCc1nc(O)c(C(=O)N2CCN(Cc3cccc(F)c3F)CC2)c(O)c1-c1cc(OC)ccc1OC [Example 110, 6-butyl-3-{4-[(2,3-difluorophenyl)methyl]piperazine-1-carbonyl}-5-(2,5-dimethoxyphenyl)pyridine-2,4-diol]	0.01 to 10
CCCCc1nc(O)c(C(=O)N2CCN(CC3CC3)CC2)c(O)c1-c1c(OC)cccc1OC [Example 111]	10 to 100
CCCCc1nc(O)c(C(=O)N2CCN(Cc3cccc(Cl)c3Cl)CC2)c(O)c1-c1cccc(OC)c1OC [Example 112, 6-butyl-3-{4-[(2,3-dichlorophenyl)methyl]piperazine-1-carbonyl}-5-(2,3-dimethoxyphenyl)pyridine-2,4-diol]	0.01 to 10
CCCCc1nc(O)c(C(=O)N2CCC(Cc3cc(F)ccc3Br)CC2)c(O)c1-c1c(OC)cccc1OC [Example 113, 3-{4-[(2-bromo-5-fluorophenyl)methyl]piperidine-1-carbonyl}-6-butyl-5-(2,6-dimethoxyphenyl)pyridine-2,4-diol]	0.01 to 10
CCOCc1nc(O)c(C(=O)N2CCN(Cc3cccc(F)c3F)CC2)c(O)c1-c1c(OC)cccc1OC [Example 114, 3-{4-[(2,3-difluorophenyl)methyl]piperazine-1-carbonyl}-5-(2,6-dimethoxyphenyl)-6-(ethoxymethyl)pyridine-2,4-diol]	0.01 to 10
CCCCc1nc(O)c(C(=O)N2CC(Oc3ncccc3F)C2)c(O)c1-c1c(OC)cccc1OC [Example 115, 6-butyl-5-(2,6-dimethoxyphenyl)-3-{3-[(3-fluoropyridin-2-yl)oxy]azetidine-1-carbonyl}pyridine-2,4-diol]	0.01 to 10
CCCCc1nc(O)c(C(=O)N2CC(OCc3cccc(F)c3F)C2)c(O)c1-c1c(OC)cccc1OC [Example 116, 6-butyl-3-{3-[(2,3-difluorophenyl)methoxy]azetidine-1-carbonyl}-5-(2,6-dimethoxyphenyl)pyridine-2,4-diol]	0.01 to 10
CCCCc1nc(O)c(C(=O)N(CCC)CCc2ccccc2F)c(O)c1-c1c(OC)cccc1OC [Example 117, 6-butyl-5-(2,6-dimethoxyphenyl)-N-[2-(2-fluorophenyl)ethyl]-2,4-dihydroxy-N-propylpyridine-3-carboxamide]	100 to 300
CCCCc1nc(O)c(C(=O)N2CC(NS(=O)(=O)c3cccc(F)c3F)C2)c(O)c1-c1c(OC)cccc1OC [Example 118, N-{1-[6-butyl-5-(2,6-dimethoxyphenyl)-2,4-dihydroxypyridine-3-carbonyl]azetidin-3-yl}-2,3-difluorobenzene-1-sulfonamide]	0.01 to 10
CCCCc1nc(O)c(C(=O)N2CCN(C(=O)c3cccc(F)c3F)CC2)c(O)c1-c1c(OC)cccc1OC [Example 119, 6-butyl-3-[4-(2,3-difluorobenzoyl)piperazine-1-carbonyl]-5-(2,6-dimethoxyphenyl)pyridine-2,4-diol]	0.01 to 10
